Patent US6693073B2, “Pulmonary delivery of active agents” (Emisphere Technologies, Inc., priority 1998, dated 2004)
Like-named read-outs stand apart in the source and are kept apart here.

Legend:
[1] = Serum insulin after pulmonary instillation of insulin with carrier compound (Example 4); format: in vivo, rat; settings: rats, spray instillation into airway; insulin 0.03 mg/kg with carrier compound 16 mg/kg
Description: Carrier compound B, carrier compound C sodium salt, and carrier compound D in Table 10 were tested as follows.
An endotracheal tube (spray instillator from Penn Century of Philadelphia, Pa.) with a syringe (Hamilton syringe) attached to the endotracheal tube was inserted using a fiber optic laryngoscope.

[2] = Solubility of carriers; format: physicochemical; settings: water, thermodynamic from solid; clear solution, pH 6.85
[3] = rat, in vivo
Description: Each rat was weighed and identified using an indelible marker and anesthetized by intraperitoneal injection of ketamine: Xylazine: Acepromazine cocktail, at 80 mg/kg, 10 mg/kg and 2.0 mg/kg, respectively and returned to its cage. The rat was transferred to the surgical bench and placed on a heating blanket thermostatically controlled via rectal probe, once deep anesthesia was achieved.
The right jugular vein of each rat was catheterized using silicone tubing and the patency of the catheter was confirmed by slowly flushing the cannula with 200 μl heparin saline and then withdrawing 100 μl of blood. The cannula was then cleared with 200 μl of heparinized saline solution.
An endotrachcal tube was inserted using a fiber optic laryngoscope. The syringe (Hamilton syringe) of the instillator was attached to the endotracheal tube and used to instill solution (100 μl) in the airways. The endotracheal tube was removed following administration, and the breathing rate was monitored throughout the remainder of the study.
Blood samples (500 μl) were withdrawn at 0, 10, 30, 60, 90, 120 and 180 min and the cannula flushed with approximately 200 μl of heparinized saline solution. The blood was collected in 1 ml tuberculin syringes (containing 100 μl heparin 20 μ/ml) placed directly into microcentrifuge tubes.
Blood samples were immediately centrifuged at 10 000 rpm for 4 min.
Average insulin plasma concentrations over time were subjected to standard compartmental and non-compartmental pharmacokinetic analysis.
Average concentrations of insulin were fitted to the following equation:
CPins=A(e^−ke 1+e^−ka 1) (Eq.1)
where A=D ka/Vd (ka−ke) is the concentration of drug in the body at time zero, ka is the first order absorption rate constant, ke is the first order elimination rate constant.
The area under the lung concentration-time curve (AUC0−1) was calculated by the trapezoidal rule. Interpolation to infinity was performed by dividing the last Cins measured by the first-order rate constant of the terminal phase. The total area under the curve was estimated by the summation of these two compounds.
The elimination half-life was calculated from 0.693/ke where ke is the slope of the terminal phase of the log of the concentration-time profile.
The non-compartment analysis for insulin plasma concentrations over time was performed using standard techniques. The time to peak CPins (Tmax) and peak CPins (Cmax) were determined from the non-fitted average plasma concentrations (CPins) versus-time profiles for the treatments. AUC was calculated by the trapezoidal rule. MRT was not calculated due to a lack of data following intravenous administration from which to calculate pharmacokinetic parameters.

[4] = tested on: plasma glucose; assay: Plasma glucose pharmacodynamics after lung spray-IT instillation to rats; format: in vivo, Sprague Dawley female rats
Description: Determination of fasting plasma glucose levels was performed using the Ektachem DT Slide (GLU) method. The analysis is based on the enzyme-catalyzed reaction of glucose with molecular oxygen, followed by a second reaction that produces a highly-colored red dye. The intensity of the color is proportional to the amount of glucose in the sample.
The percentage minimum plasma glucose concentration (%MPGC) and the time T to attain each %MPGC (T%MPGC) were determined from the average plasma glucose levels versus-time profiles for the treatments.
The area above the curve effect (AACE) was calculated as follows:
AACE=Total area−AUCE (Eq.2)
where AUCE represents the area under the curve effect calculated using the trapezoidal rule.
The percentage total reduction in plasma glucose from 0→t (%TRPG 0→t) was determined using the following equation:
%TRPG0→t=100(AACE/total area) (Eq.3)

[5] = lung spray-IT, insulin 0.01 mg/kg alone
[6] = lung spray-IT, insulin 0.05 mg/kg alone
[7] = spray-IT, porcine insulin 0.01 mg/kg, Table 3
[8] = spray-IT, porcine insulin 0.05 mg/kg, Table 3
[9] = spray-IT, porcine insulin 0.1 mg/kg, Table 3
[10] = spray-IT, porcine insulin 0.5 mg/kg, Table 3
[11] = spray-IT, porcine insulin 1.0 mg/kg, Table 3

Compound: CC(C(=O)O)c1ccc(NC(=O)c2ccccc2O)cc1 (stereo not drawn) [Carrier B, 2-(4-(N-salicyloyl)aminophenyl) propionic acid]
- Cmax (serum insulin) [1]: 44.6 ± 10.0 μU/ml

Compound: COc1cccc(C(=O)Nc2ccc(CCC(=O)[O-])cc2)c1OC.[Na+] [Carrier C sodium salt]
- Cmax (serum insulin) [1]: 22.5 ± 4.0 μU/ml

Compound: Cc1ccc(C(=O)NCCCCCCCC(=O)O)c(O)c1 [Carrier D, N-(4-methylsalicyloyl)-8-aminocaprylic acid]
- Cmax (serum insulin) [1]: 58.8 ± 12.0 μU/ml
- melting point: 113 to 114 °C

Compound: CC(C(=O)[O-])c1ccc(NC(=O)c2ccccc2O)cc1.[Na+] (stereo not drawn) [Sodium Salt of Carrier B, Sodium 2-(4-(N-salicyloyl)aminophenyl)propionate]
- solubility [2]: 200 mg/mL

Compound: Porcine Insulin: Lyophilized porcine insulin 25.9 IU/mg (Emisphere Technologies)
- half-life of decline in plasma concentrations [3]: 27.8 to 142.4 min
- t½ (abs) ([3]; 0.001 mg/kg): 27.8 min
- t½ (elim) ([3]; 0.001 mg/kg): 3.0 min
- t½ (abs) ([3]; 0.005 mg/kg): 42.6 min
- t½ (elim) ([3]; 0.005 mg/kg): 3.0 min
- tmax ([3]; 0.01 mg/kg): 10 min
- tmax ([3]; 0.05 mg/kg): 10 min
- AUC ([3]; 0.1 mg/kg): 9517.5
- tmax ([3]; 0.1 mg/kg): 10 min
- AUC ([3]; 0.5 mg/kg): 60345
- tmax ([3]; 0.5 mg/kg): 30 min
- AUC ([3]; 1 mg/kg): 178143.5
- tmax ([3]; 1 mg/kg): 30 min
- relative bioavailability ([3]; sc): 12.46%
- % MPGC [4, 5]: 70.02%
- % TRPG0-3 hr [4, 5]: 10.5±1.5%
- AACE0-t [4, 5]: 1892 ± 989 mcU/min/ml
- T % MPGC [4, 5]: 180 min
- % TRPG0-3 hr ([4]; lung spray-IT, insulin 0.01 mg/kg alone, listed as Insulin alone): 10.5 ± 1.5%
- % MPGC [4, 6]: 35.7%
- % TRPG0-3 hr [4, 6]: 47±10%
- AACE0-t [4, 6]: 8497 ± 1716 mcU/min/ml
- T % MPGC [4, 6]: 120 min
- % TRPG0-3 hr ([4]; lung spray-IT, insulin 0.05 mg/kg alone, listed as Insulin alone): 47 ± 10%
- % MPGC [4, 7]: 70.2%
- % TRPG0→3 hr [4, 7]: 10.5 ± 1.5%
- AACE0→t [4, 7]: 1892 ± 989 μU · min/ml
- T % MPGC [4, 7]: 180
- % TRPG0→3 hr ([4]; spray-IT, porcine insulin 0.01 mg/kg, Table 3, listed as insulin): 10.5%
- % MPGC [4, 8]: 35.69%
- % TRPG0→3 hr [4, 8]: 47.2 ± 9.5%
- AACE0→t [4, 8]: 8497 ± 1716 μU · min/ml
- T % MPGC [4, 8]: 120
- % MPGC [4, 9]: 35.3%
- % TRPG0→3 hr [4, 9]: 50.5 ± 12.7%
- AACE0→t [4, 9]: 9102 ± 2295 μU · min/ml
- T % MPGC [4, 9]: 120
- % MPGC [4, 10]: 30.6%
- % TRPG0→3 hr [4, 10]: 54.5 ± 6.5%
- AACE0→t [4, 10]: 10205 ± 1173 μU · min/ml
- T % MPGC [4, 10]: 60
- % MPGC [4, 11]: 13.1%
- % TRPG0→3 hr [4, 11]: 73.7 ± 3.1%
- AACE0→t [4, 11]: 13266 ± 570 μU · min/ml
- T % MPGC [4, 11]: 120
- % TRPG0→3 hr ([4]; spray-IT, porcine insulin 1.0 mg/kg, Table 3, listed as insulin): 73.7%
